# Test results as given in patent publication US11249070B2, “Anti-cancer drug assessment method” (TOPPAN PRINTING CO., LTD., priority 2016, dated 2022).
# Read-outs that look alike come from different tables or passages of the source.
# How the values were obtained:
# HT29 [1] = assay: CNT with doxorubicin, vascular network in layer shape vs scattered (Example 3); format: cell-based, human; details: doxorubicin 10 μM, 72 hours
# [2] = test system: human colon cancer cell line HT29; assay: CNT (remaining viable cell rate) with doxorubicin, 2D cultures vs 3D cell structures (Example 2); format: cell-based; details: doxorubicin 10 μM; for CNT (%) Average value: 72 hours
# Source text: The anti-cancer drug to be assessed was doxorubicin (product number: 046-21523, produced by Wako Pure Chemical Industries, Ltd.).
# After termination of the culture, cell structures in which a cancer cell layer was laminated on a layer having a vascular network structure were obtained.
# Moreover, for comparison, in place of the above cell structures, structures were constructed by culturing cancer cells so as to form a single layer in a general culture container (2D method), and the resulting 2D cultures were similarly cultured in the presence of doxorubicin. A vascular network was not formed in the obtained 2D cultures even when cancer cells and vascular endothelial cells were made to coexist.
# Next, a suitable amount of tris buffer solution (50 mM, pH: 7.4) was added to the Transwell cell culture insert, and the liquid component was then removed. This series of processes was repeated 3 times. […] Thereafter, all of the solution was collected, and transferred to a 1.5-mL collection tube to which 300 μL of 0.25% trypsin-EDTA solution (produced by Invitrogen) had been previously added. […] Thereafter, all of the solution was collected, and transferred to a 1.5-mL collection tube.
# [3] = test system: breast cancer cell line MCF-7; assay: CNT with doxorubicin, 2D vs 3D (Example 14); format: cell-based, human; details: for CNT (%) Average value: 72 hours
# Source text: The general cytotoxic anti-cancer drug to be assessed was doxorubicin (product number: 046-21523, produced by Wako Pure Chemical Industries, Ltd.).
# HT29 [4] = assay: CNT with doxorubicin, cell structures with or without semipermeable membrane (Example 9); format: cell-based, human; details: doxorubicin 10 μM, 72 hours
# Source text: The cell structures containing a cell layer containing cancer cells and a cell layer having a vascular network structure used herein were cell structures containing a cell layer in which two types of cells, i.e., NHDF and HUVEC, constituted a multilayer, and a cancer cell layer formed from HT29.
# Separately, 2×10^4 HT29 was suspended in a suitable amount of culture medium to prepare a cancer cell suspension (step (a)). The HT29 used was previously fluorescently labeled (product number: PKH67GL, produced by SIGMA).
# A cell structure 2 was obtained in the same manner as in the cell structure 1, except that a semipermeable membrane with a pore size of 0.4 μm was placed on a structure containing stromal cells, and a cancer cell suspension was seeded on the semipermeable membrane to form a cancer cell layer. […] In the cell structure 2, the cells constituting the cancer cell layer were completely separated from the cells constituting the stromal cell layer.
# A cell structure 3 was obtained in the same manner as in the cell structure 1, except that a cancer cell suspension was first seeded in a Transwell cell culture insert to form a cancer cell layer, a semipermeable membrane with a pore size of 0.4 μm was placed on the cancer cell layer, and a stromal cell suspension was then seeded on the semipermeable membrane to form a stromal cell layer. […] In the cell structure 3, the cells constituting the cancer cell layer were completely separated from the cells constituting the stromal cell layer.
# (§1) A cell structure 4 was obtained in the same manner as in the cell structure 2, except that a semipermeable membrane with a pore size of 8 μm was used. […] In the cell structure 4, the cells constituting the cancer cell layer and the cells constituting the stromal cell layer extended to be in contact with each other in the penetration part of the semipermeable membrane.
# as §1, with “5” for “4”, “3,” for “2,”, “5,” for “4,”
# HT29 [5] = details: oxaliplatin 100 μg/mL, bevacizumab 2 μg per well in combined use
# Protocol: (§3) Furthermore, HT29 cells were used as the cancer cells.
# Cell structures were produced in the same manner as in Example 5, except that HT29 cells were seeded in a Transwell cell culture insert in which a structure formed from NHDF and HUVEC was formed, centrifugation was performed to remove the liquid component, and the culture time in the CO2 incubator (37° C., 5% CO2) was changed to 24, 48, 72, or 96 hours.
# (§4) After the cell structures were each dispersed in the same manner as in Example 2, and the obtained dispersions were stained with trypan blue, the number of viable cancer cells was counted to calculate CNT (%). Measurements were repeated three times for each culture condition.
# HT29 [6] = details: bevacizumab 2 μg per well in the combination, 72 hours
# Source text: (§5) The cell structures containing cancer cells and having a vascular network structure used herein were the cell structures produced in Example 5, and the cell culture container, culture media, and bevacizumab used herein were also the same as those used in Example 5.
# (§6) After the cell structures were each dispersed in the same manner as in Example 2, and the obtained dispersions were stained with trypan blue, the number of viable cancer cells was counted to calculate CNT (%).
# [7] = test system: gastric cancer cell line NCI-N87; assay: CNT with oxaliplatin, 2D vs 3D (Example 13); format: cell-based, human; details: for CNT (%): 72 hours, measured once
# Protocol: (§2) Measurements were performed once for each culture condition.
# HT29 [8] = details: oxaliplatin 100 μg/mL, bevacizumab 2 μg per well in combined use, 72 hours
# Source text: as §3, §4
# HCT116 = details: bevacizumab 2 μg per well in the combination, 72 hours
# Source text: as §5, §6
# [9] = test system: lung cancer cell line NCI-H820; assay: CNT with oxaliplatin, 2D vs 3D (Example 12); format: cell-based, human; details: for CNT (%): 72 hours, measured once
# Protocol: as §2
# HT29 [10] = assay: CNT with cetuximab and/or bevacizumab, 2D, spheroid, 3D (Example 4); format: cell-based, human; details: for CNT (%) Average value / CNT (%) Median value: cetuximab 1 mg/mL and/or bevacizumab 2 μg per well, 72 hours
# Source text: Moreover, for comparison, in place of the above cell structures, structures were produced by culturing cancer cells so as to form a single layer in a general culture container (2D method), and spheroids were produced by spheroid culture of a mixture of 2×10^6 NHDF, 3×10^4 HUVEC, and 2×10^4 HT29 (spheroid method).
# [11] = Spheroid, oxaliplatin 100 μg/mL
# [12] = regardless of the oxaliplatin concentration
molecule,measurement,setting,value
"COc1cccc2c1C(=O)c1c(O)c3c(c(O)c1C2=O)C[C@@](O)(C(=O)CO)C[C@@H]3O[C@H]1C[C@H](N)[C@H](O)[C@H](C)O1 [Doxorubicin, doxorubicin]",CNT (%) Average value,HT29 [1]; cell structure in which a vascular network structure is formed in a layer shape,31.22%
same,CNT (%) Average value,HT29 [1]; cell structure in which a vascular network structure is scattered in the entire structure,31.06%
same,CNT (%) Average value,"[2]; 2D, HT29 2 × 10^4 only",6.87%
same,CNT (%) Average value,"[2]; 2D, HUVEC 2 × 10^4 + HT29 2 × 10^4",21.40%
same,CNT (%) Average value,"[2]; 2D, NHDF 2 × 10^4 + HT29 2 × 10^4",13.20%
same,effectiveness in 2D culture co-cultured with fibroblasts relative to 2D culture co-cultured with vascular endothelial cells,[2]; 2D,about two
same,CNT of the cell structures relative to 2D culture,[2]; 3D cell structures vs 2D culture of only cancer cells and 2D culture of cancer cells and fibroblasts,at least 5 times
same,CNT (%) Average value,"[2]; 3D, NHDF 1 × 10^6 + HUVEC 3 × 10^4 + HT29 2 × 10^4",28.22%
same,CNT (%) Average value,"[2]; 3D, NHDF 2 × 10^6 + HT29 2 × 10^4, no vascular network",29.77%
same,CNT (%) Average value,"[2]; 3D, NHDF 2 × 10^6 + HUVEC 3 × 10^4 + HT29 2 × 10^4",31.22%
same,CNT (%) Average value,"[3]; 2D, Doxorubicin 1 μM",38.9%
same,CNT (%) Average value,"[3]; 2D, Doxorubicin 10 μM",12.1%
same,CNT (%) Average value,"[3]; 3D, Doxorubicin 1 μM",78.4%
same,CNT (%) Average value,"[3]; 3D, Doxorubicin 10 μM",48.9%
same,"drug sensitivity, cell structures compared with 2D cultures",[3]; regardless of the doxorubicin concentration,drug sensitivity was lower
same,CNT (%) Average value,HT29 [4]; Cell structure 1 (stromal cell layer - cancer cell layer),31.22%
same,CNT (%) Average value,HT29 [4]; Cell structure 2 (stromal cell layer - semipermeable membrane (0.4 μm) - cancer cell layer),30.83%
same,CNT (%) Average value,HT29 [4]; Cell structure 3 (cancer cell layer - semipermeable membrane (0.4 μm) - stromal cell layer),32.68%
same,CNT (%) Average value,HT29 [4]; Cell structure 4 (stromal cell layer - semipermeable membrane (8 μm) - cancer cell layer),31.47%
same,CNT (%) Average value,HT29 [4]; Cell structure 5 (cancer cell layer - semipermeable membrane (8 μm) - stromal cell layer),33.03%
"O=C1[O][Pt]2([NH][C@@H]3CCCC[C@H]3[NH]2)[O]C1=O [Oxaliplatin, oxaliplatin]",CNT (%) Average value,"HT29 [5]; culture time 24 h after lamination of cancer cell layer, 72 hours",36.0%
same,CNT (%) Average value,"HT29 [5]; culture time 48 h after lamination of cancer cell layer, 72 hours",36.3%
same,CNT (%) Average value,HT29 [5]; culture time 72 h after lamination of cancer cell layer,37.0%
same,CNT (%) Average value,"HT29 [5]; culture time 96 h after lamination of cancer cell layer, 72 hours",33.8%
same,CNT (%) Average value,"HT29 [6]; 2D, oxaliplatin 10 μg/mL",39.4%
same,CNT (%) Average value,"HT29 [6]; 2D, oxaliplatin 100 μg/mL",16.0%
same,CNT (%) Average value,"HT29 [6]; 3D, oxaliplatin 10 μg/mL",63.6%
same,CNT (%) Average value,"HT29 [6]; 3D, oxaliplatin 100 μg/mL",31.9%
same,CNT (%) Average value,"HT29 [6]; Spheroid, oxaliplatin 10 μg/mL",48.2%
same,CNT (%) Average value,HT29 [6]; [11],22.3%
same,CNT (%),"[7]; 2D, oxaliplatin 10 μg/mL",22.0%
same,CNT (%),"[7]; 2D, oxaliplatin 100 μg/mL",10.3%
same,CNT (%),"[7]; 3D, oxaliplatin 10 μg/mL",45.9%
same,CNT (%),"[7]; 3D, oxaliplatin 100 μg/mL",17.7%
same,"drug sensitivity, cell structures compared with 2D cultures",[7]; [12],drug sensitivity was lower
same,CNT (%) Average value,"HT29 [8]; HUVEC content 0.05 %, vascular network not formed",30.3%
same,CNT (%) Average value,"HT29 [8]; HUVEC content 0.25 %, vascular network formed",33.4%
same,CNT (%) Average value,"HT29 [8]; HUVEC content 0.5 %, vascular network formed",35.7%
same,CNT (%) Average value,"HT29 [8]; HUVEC content 1.5 %, vascular network formed",33.8%
same,CNT (%) Average value,"HCT116; 2D, oxaliplatin 10 μg/mL",23.8%
same,CNT (%) Average value,"HCT116; 2D, oxaliplatin 100 μg/mL",11.3%
same,CNT (%) Average value,"HCT116; 3D, oxaliplatin 10 μg/mL",54.1%
same,CNT (%) Average value,"HCT116; 3D, oxaliplatin 100 μg/mL",35.6%
same,CNT (%) Average value,"HCT116; Spheroid, oxaliplatin 10 μg/mL",51.8%
same,CNT (%) Average value,HCT116; [11],18.8%
same,CNT (%),"[9]; 2D, oxaliplatin 1 μg/mL",62.9%
same,CNT (%),"[9]; 2D, oxaliplatin 10 μg/mL",21.0%
same,CNT (%),"[9]; 3D, oxaliplatin 1 μg/mL",78.2%
same,CNT (%),"[9]; 3D, oxaliplatin 10 μg/mL",66.7%
same,"drug sensitivity, cell structures compared with 2D cultures",[9]; [12],drug sensitivity was lower
bevacizumab,CNT,HT29 [10]; 2D cultures and spheroids,about 100%
same,CNT (%) Average value,HT29 [10]; 2D,93.9%
same,CNT (%) Median value,HT29 [10]; 2D,99.3%
same,CNT (%) Average value,HT29 [10]; 3D,105.2%
same,CNT (%) Median value,HT29 [10]; 3D,112.7%
same,CNT (%) Average value,HT29 [10]; Spheroid,108.6%
same,CNT (%) Median value,HT29 [10]; Spheroid,113.8%
same,CNT,"HT29 [10]; cell structures of the present Example, 3D",about 100%
